# Read-outs that look alike come from different tables or passages of the source.
# Assays:
# HCV [1] = test: Anti-HCV effect in vitro, intracellular HCV RNA by real-time RT-PCR in infected Huh7.5 cells; assay type: cell-based, hepatitis C virus; settings: for EC50: HCV-infected Huh7.5 cells, 72 h, real-time RT-PCR, read-out: EC50 (concentration required to inhibit HCV growth by 50%)
# Procedure: (§1) All the target compounds were evaluated for their anti-HCV activities (EC50) and cytotoxicities (CC50) in human Huh7.5 cells using specific real-time RT-PCR assay, as described earlier. As an important indicator, the selectivity index (SI) was calculated as a ratio of CC50 to EC50. Anti-HCV ability of a given compound was estimated by combining its EC50 with SI values.
# (§2) Human liver cell line Huh7.5 cells (kindly provided by Vertex Pharmaceuticals, Inc., Boston, MA) were cultured in Dulbecco’s modified eagle medium (DMEM) supplemented with 10% inactivated fetal bovine serum and 1% penicillin–streptomycin (invitrogen). Cells were digested with 0.05% trypsin-ethylene diamine tetraacetic acid (EDTA) and split twice a week.
# Huh7.5 cells were seeded into 96-well or 6-well plates (Costar) at a density of 3 × 10^4 cells cm^−2. After 24 h incubation, the cells were infected with HCV viral stock (45 IU cell^−1) and simultaneously treated with the test compounds at various concentrations or solvent as control. The culture medium was removed after 72 h inoculation, the intracellular total RNA (in 96-well plates) was extracted with RNeasy Mini Kit (Qiagen), and total intracellular proteins (in 6-well plates) were extracted with Cyto-Buster Protein Extraction Reagent added with 1 mM protease inhibitor cocktail. The intracellular HCV RNA was quantified with a real time one-step reverse-transcription polymerase chain reaction (RT-PCR).
# Huh7.5 cells = test: Cytotoxicity assay (MTT) in Huh7.5 cells; assay type: cell-based, human; settings: Huh7.5 cells, 72 h, MTT; read-out: CC50 (cytotoxic concentration required to inhibit Huh7.5 cell growth by 50%)
# Procedure: as §1, §2
# (§3) Huh7.5 cells were seeded into 96-well plates (Costar) at a density of 3 × 10^4 cells cm^−2. After 24 h incubation, fresh culture medium containing test compounds at various concentrations were added. 72 h later, cytotoxicity was evaluated with 3-(4,5-dimethylthiazol-2-yl)-2,5-diphenyltetrazolium bromide (MTT).
# [2] = PK study after single oral dosing; assay type: in vivo, SD rats; settings: rats, single oral dosing of 25 mg kg^−1, n = 3
# Kunming mice = test: Acute toxicity test, single oral dosing, 7 days monitoring; assay type: in vivo
# Procedure: Each compound was given orally in a single-dosing experiment at 250, 500, 750 or 1000 mg kg^−1, respectively. The mice were closely monitored for 7 days.
# Female Kunming mice with weight of 20.0 ± 1.0 g were fed with regular rodent chow and housed in an air conditioned room. The mice were randomly divided into different groups with six mice each. Each compound was given orally in a single-dosing experiment at 0, 250, 500, 750 or 1000 mg kg^−1 (ddH2O as control), respectively. The mice were closely monitored for 7 days. Body weight as well as survival was monitored.
# [3] = Cytotoxicity assay (MTT) in Huh7.5 cells; assay type: cell-based, human; settings: human; Huh7.5 cells, 72 h, MTT; read-out: CC50 (cytotoxic concentration required to inhibit Huh7.5 cell growth by 50%)
# Procedure: as §1, §2, §3
# HCV [4] = system: HCV; set-up: method as in PMID 23516533, PMID 20593456; settings: earlier studies; cited from earlier work
Structure (SMILES),EC50 (HCV [1]),CC50 (Huh7.5 cells),AUC 0–t [2],AUC 0–∞ [2],Cmax [2],MRT [2],Tmax [2],t1/2 [2],LD50 (Kunming mice),EC50 (HCV [1]; Hepatitis C virus),SI (ratio of CC50 to EC50) (HCV [1]; Huh7.5 cells),CC50 at 72 h [3],SI (anti-HCV) (HCV [4])
"COc1ccc(CN2CC3CCCN4CCCC(C2CCCCO)C34)cc1.Cl.Cl (stereo not shown) [7a, 12N-(4-Methoxybenzyl)matrinol dihydrochloride]",2.81 ± 0.82 µM,383 ± 30.2 µM,1.55 µM·h,1.58 µM·h,620 nM,3.55 h,0.42 h,4.69 h,708 mg/kg,,,,
"Cc1ccc(CN2C[C@@H]3CCCN4CCC[C@@H]([C@H]34)[C@H]2CCCCO)cc1.Cl.Cl [7b, 12N-(4-Methylbenzyl)matrinol dihydrochloride]",< 2.06 µM,252 ± 3.04 µM,2.32 µM·h,2.36 µM·h,790 nM,4.47 h,1.00 h,3.39 h,392 mg/kg,,,,
"COc1ccc(CN2C[C@@H]3CCCN4CCC[C@@H]([C@H]34)[C@H]2CCCC(=O)O)cc1 [compound 1, 12N-4-methoxylbenzyl matrinic acid]",,,,,,,,,,43.8 ± 3.81 µM,> 22.8,> 1000 µM,over 22
